Measurements: patent US11447486B2, “2-amino-benzimidazole derivatives and their use as 5-lipoxygenase and/or prostaglandin E synthase inhibitors” (INSTITUT PASTEUR KOREA, priority 2014, dated 2022)
Read-outs that look alike come from different tables or passages of the source.

Experiments:
human 5-LOX = target: T1, human 5-LOX (Homo sapiens, UniProt P09917); assay: 5-LOX enzyme activity, fluorescence method (5-HPETE, H2DCFDA); assay type: biochemical; details: read-out: 5-LO (IC50)
T1 construct: purchased Cayman 60402; host or cells: insect cells (lysate)
T1 sequence (P09917 1-674): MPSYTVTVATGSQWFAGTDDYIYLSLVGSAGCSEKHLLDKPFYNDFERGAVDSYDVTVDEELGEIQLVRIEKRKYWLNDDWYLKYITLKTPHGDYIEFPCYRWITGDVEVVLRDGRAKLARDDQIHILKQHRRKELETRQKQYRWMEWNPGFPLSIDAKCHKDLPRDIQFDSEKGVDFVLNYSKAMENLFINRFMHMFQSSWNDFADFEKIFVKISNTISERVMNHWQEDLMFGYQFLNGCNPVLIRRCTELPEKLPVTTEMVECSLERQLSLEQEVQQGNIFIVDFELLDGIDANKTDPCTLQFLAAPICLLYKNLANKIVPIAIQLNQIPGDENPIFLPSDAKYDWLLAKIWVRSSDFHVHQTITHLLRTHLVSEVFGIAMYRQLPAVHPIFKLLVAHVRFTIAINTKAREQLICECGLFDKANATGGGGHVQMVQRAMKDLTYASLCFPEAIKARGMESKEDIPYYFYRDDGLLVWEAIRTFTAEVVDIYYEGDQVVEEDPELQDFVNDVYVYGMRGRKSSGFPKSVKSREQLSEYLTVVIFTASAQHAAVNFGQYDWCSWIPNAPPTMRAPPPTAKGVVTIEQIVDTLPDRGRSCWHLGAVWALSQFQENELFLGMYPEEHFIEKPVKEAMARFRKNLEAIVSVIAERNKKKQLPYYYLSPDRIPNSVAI
How it was run: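 Compound (0.5 nM to 10 uM) pre-incubated 5 min with enzyme; reaction started with ATP (100 uM final) and arachidonic acid (3 uM final). All steps at room temperature, fluorescence read-out.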

[1] = tested on: Rat basophilic leukemia (RBL) cells; assay: LTB4 secretion assay in RBL (rat basophilic leukemia cells); assay type: cell-based
How it was run: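 Cells seeded 2×10^4/well the day before, then pre-incubated 15 min at 37 °C in EMEM/0.5% FBS with compound (5 nM to 100 uM). Stimulation with 2.5 uM arachidonic acid plus 5 uM A23187 (final) for 10 min at 37 °C; LTB4 in supernatant quantified by EIA.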

Rat whole blood (RWB) = assay: LTB4 secretion assay in RWB (rat whole blood); assay type: cell-based
Protocol: Rat blood was drawn from caudal vena cava from male Sprague Dawley rat (6-9 weeks old) in vacuette coated with sodium heparin (Greiner bio-one, Cat #455051). The blood was pooled and diluted with RPMI (WelGENE, Cat #LM 011-05) to 1:1. The diluted blood was aliquoted into 96 well plate (200 ul per well) and compounds were added in dose response to a desired concentration ranging from 2.5 nM to 50 uM. After 15 min of pre-incubation at 37° C., calcium ionophore (A23187) was added to the final concentration of 10 uM. After 10 min of further incubation at 37° C., the LTB4 production was stopped by diluting the reaction mixture with ice cold PBS (1:4 dilutions). Cells were removed by centrifugation at 1000×g, 4° C. for 10 min, and the supernatant was transferred and then the quantification of LTB4 was done with Leukotriene B4 EIA kit (Cayman, Cat #520111) as instructed.

Compound | IC50 (human 5-LOX) [µM] | EC50 ([1]; Rattus norvegicus, RBL) [µM] | EC50 (Rat whole blood (RWB); Rattus norvegicus) [µM] | EC50 [1] [µM] | EC50 (Rat whole blood (RWB)) [µM]
Cc1cc(Nc2ccc3nc(NCc4ccc(Nc5ncc(Cl)cn5)cc4)n(C)c3c2)n[nH]1 [Compound 486] | < 1 | < 10 | < 10 |  | 
CC(C)(O)Cn1c(NCc2ccc(Oc3ccc(Cl)cn3)cc2)nc2ccc(N)cc21 [Compound 203] | < 1 | < 10 | > 20 |  | 
Nc1ccc2c(c1)nc(N1CCC1)n2CCOc1ccc(OC(F)(F)F)cc1 [Compound 70] | < 1 | < 10 | > 20 |  | 
CCC(Nc1nc2ccc(Nc3cc(C(F)(F)F)n(C)n3)cc2n1C)c1ccc(Oc2ncc(Cl)cn2)cc1 (stereo not drawn) [Compound 505] | < 1 | < 10 | < 10 |  | 
Cn1c(NCc2ccc(Oc3ncc(Cl)cn3)cc2)nc2ccc(Nc3cc[nH]n3)cc21 [Compound 450] | < 1 | < 10 | < 10 |  | 
CN(c1ccc2nc(NCc3ccc(Oc4ccc(Cl)cn4)cc3)n(C)c2c1)C1COC1 [Compound 277] | < 1 | < 10 | < 10 |  | 
Cn1c(NCc2ccc(Oc3ncc(Cl)cn3)cc2)nc2ccc(Nc3nc(C(F)(F)F)cs3)cc21 [Compound 494] | 1 to 10 | < 10 | < 10 |  | 
Cn1c(NCc2ccc(Oc3cnc(N)nc3)cc2)nc2ccc(NC3COC3)cc21 [Compound 369] | < 1 | < 10 | < 10 |  | 
Nc1ccc2nc(N3CCC3)n(CCOc3ccc(OC(F)(F)F)cc3)c2c1 [Compound 68] | < 1 | < 10 | > 20 |  | 
Cn1c(NCc2ccc(Oc3ccc(Cl)cn3)cc2)nc2c(F)cc(NC3COC3)cc21 [Compound 553] | < 1 | < 10 | < 10 |  | 
Cc1cc(Nc2cnc3nc(NCc4ccc(Oc5ncc(Cl)cn5)cc4)n(C)c3c2)n[nH]1 [Compound 497] | 1 to 10 | > 20 | > 20 |  | 
Cn1c(NCc2ccc(Oc3ncc(Br)cn3)cc2)nc2ccc(NC3COC3)cc21 [Compound 362] | < 1 | 10 to 20 | < 10 |  | 
CCn1c(NCc2ccc(Oc3ncc(C(F)(F)F)cn3)cc2)nc2ccc(Nc3cc(C(C)(C)C)[nH]n3)cc21 [Compound 513] | < 1 |  |  | < 10 | < 10
CCn1c(NCc2ccc(Oc3ncc(Cl)cn3)cc2F)nc2ccc(Nc3cc(C(F)(F)F)n(C)n3)cc21 [Compound 506] | > 10 | < 10 | < 10 |  | 
Cn1c(NCCOc2ccc(OC(F)(F)F)cc2)nc2ccc(N)cc21 [Compound 52] | < 1 | < 10 | < 10 |  | 
Nc1ccc2nc(NCc3ccc(C(=O)c4ccc(Cl)cc4)cc3)[nH]c2c1 [Compound 130] | < 1 | < 10 | < 10 |  | 
CCC(Nc1nc2ccc(Nc3cc(C)[nH]n3)cc2n1C)c1ccc(Oc2ncc(C(F)(F)F)cn2)cc1F (stereo not drawn) [Compound 541] | < 1 | < 10 | < 10 |  | 
Cn1c(NCc2ccc(Oc3cccnc3)cc2)nc2ccc(NC3COC3)cc21 [Compound 227] | < 1 | < 10 | < 10 |  | 
FC(F)(F)CCNc1nc2ccc(NC3COC3)cc2n1Cc1ccc(Oc2ccc(Cl)cc2)cc1 [Compound 279] | 1 to 10 | < 10 | < 10 |  | 
CCC(Nc1nc2ccc(Nc3cc(C)[nH]n3)cc2n1C)c1ccc(Oc2ncc(C(F)(F)F)cn2)cc1 (stereo not drawn) [Compound 534] | < 1 | < 10 | < 10 |  | 
Cn1c(NCc2ccc(Oc3ncccn3)cc2)nc2ccc(N)cc21 [Compound 344] | < 1 | > 20 | 10 to 20 |  | 
Cn1c(NCc2ccc(Nc3ncc(Cl)cn3)cc2)nc2ccc(NC3COC3)cc21 [Compound 461] | < 1 | < 10 | < 10 |  | 
Cn1nc(Nc2ccc3nc(NCc4ccc(Oc5ncc(Cl)cn5)cc4)n(C)c3c2)cc1C(F)(F)F [Compound 468] | < 1 | < 10 | < 10 |  | 
